Results from US9429582B2, “Tyrosine-phosphorylated WBP2, a novel cancer target and biomarker” (National University of Singapore, priority 2010, dated 2016).

Experiments:
WBP2 = test: Immunoblot of WBP2 expression in drug-treated WBP2-Y192-231E mutant-expressing MCF7; type: cell-based, human; settings: Y192-231E-expressing MCF7; 15 μM FH535; day 2-4 post-treatment
Procedure: A: Whole cell lysates from vector, WBP2-WT, WBP2-Y192-231E mutant and WBP2-Y192-231F mutant expressing MCF7 or Y192-231E mutant expressing MCF7 with WBP2 knockdown were used for IB analysis with antibodies indicated. B: Vector, WBP2-WT, WBP2-Y192-231E mutant or WBP2-Y192-231F mutant-expressing MCF7 were co-transfected with TOPFlash (top panel) or ERE-Luciferase (bottom panel) reporter construct. For cells co-transfected ERE-luciferase, they were either left alone or stimulated with 50 ng/ml Wnt3a ligand for 16 hrs. TCF/ERα luciferase activities in various conditions were then assayed. **P<0.01, ***P<0.001, Student's t-test (2-tailed). […] Cell numbers were measured. […]
Whole cell lysates from vector, WBP2-WT, WBP2-Y192-231E mutant and WBP2-Y192-231F mutant expressing MCF7 (A) or Y192-231E mutant expressing MCF7 with WBP2 knockdown (B) were used for IB analysis with antibodies indicated. Their expression levels were quantified in three independent experiments and the averages were presented relative to actin. […] TCF(C)/ER[…](D) luciferase activities in various conditions were then assayed and analyzed in relative to untreated vector control. **P<0.01, ***P<0.001, Student's t-test (2-tailed). […] Cell numbers were measured daily and compared in relative to vehicle treated vector-expressing cells on Day 0. […] Cell numbers were measured and compared in relative to vehicle-treated cells. […]

vector-expressing MCF7 = test: Cell proliferation (MTS / cell numbers) of vector-expressing MCF7; type: cell-based, human
Procedure: A: Whole cell lysates from vector, WBP2-WT, WBP2-Y192-231E mutant and WBP2-Y192-231F mutant expressing MCF7 or Y192-231E mutant expressing MCF7 with WBP2 knockdown were used for IB analysis with antibodies indicated. B: Vector, WBP2-WT, WBP2-Y192-231E mutant or WBP2-Y192-231F mutant-expressing MCF7 were co-transfected with TOPFlash (top panel) or ERE-Luciferase (bottom panel) reporter construct. For cells co-transfected ERE-luciferase, they were either left alone or stimulated with 50 ng/ml Wnt3a ligand for 16 hrs. TCF/ERα luciferase activities in various conditions were then assayed. **P<0.01, ***P<0.001, Student's t-test (2-tailed). C: Vector or WBP2-Y192-231E mutant-expressing MCF7 were treated with indicated concentrations of Tamoxifen(Tam) and/or FH535. Cell numbers were measured. D: Whole cell lysates from WBP2-Y192-231E mutant-expressing MCF7 treated with 2 μM Tam and/or 15 μM FH5353 were harvested at day 2-4 post-treatment and used for IB analysis with antibodies indicated.
Whole cell lysates from vector, WBP2-WT, WBP2-Y192-231E mutant and WBP2-Y192-231F mutant expressing MCF7 (A) or Y192-231E mutant expressing MCF7 with WBP2 knockdown (B) were used for IB analysis with antibodies indicated. Their expression levels were quantified in three independent experiments and the averages were presented relative to actin. Representative blots (order in lanes from left to right: vector, WBP2, Y192-231E, Y192F) were presented as insets to the bar graphs. **P<0.01, ***P<0.001, Student's t-test (2-tailed) relative to vector. […] TCF(C)/ER[…](D) luciferase activities in various conditions were then assayed and analyzed in relative to untreated vector control. **P<0.01, ***P<0.001, Student's t-test (2-tailed). […] Cell numbers were measured daily and compared in relative to vehicle treated vector-expressing cells on Day 0. […] Cell numbers were measured and compared in relative to vehicle-treated cells. Their […] were analyzed statistically with SPSS 13.0. […] Cell numbers were measured on day 2 and day 4 and compared in relative to vehicle-treated control at each day (Top Panel). […]

Compound: Cc1cc([N+](=O)[O-])ccc1NS(=O)(=O)c1cc(Cl)ccc1Cl [FH535]
- WBP2 expression (WBP2): without affecting
- inhibition of growth / reduction of proliferation (vector-expressing MCF7; MCF7 cells expressing vector, day 4, 100 nM fulvestrant or 15 μM FH535): about 30%
- growth inhibition, dose dependence (vector-expressing MCF7; vector stable transfectant, 0-50 μM FH535 for 2 days): dose dependent growth inhibition
